For 24 molecules, Relative potency, IC50 and ED50 results are on record in ChEMBL document CHEMBL1129853, “Design and biological evaluation of a series of thiophene-based 3-hydroxy-3-methylglutaryl coenzyme a reductase inhibitors” (Bioorg Med Chem Lett, 1997).

In assay [1] the target is T1, 3-hydroxy-3-methylglutaryl-coenzyme A reductase (Rattus norvegicus) (UniProt P51639).
T1 sequence (whole entry): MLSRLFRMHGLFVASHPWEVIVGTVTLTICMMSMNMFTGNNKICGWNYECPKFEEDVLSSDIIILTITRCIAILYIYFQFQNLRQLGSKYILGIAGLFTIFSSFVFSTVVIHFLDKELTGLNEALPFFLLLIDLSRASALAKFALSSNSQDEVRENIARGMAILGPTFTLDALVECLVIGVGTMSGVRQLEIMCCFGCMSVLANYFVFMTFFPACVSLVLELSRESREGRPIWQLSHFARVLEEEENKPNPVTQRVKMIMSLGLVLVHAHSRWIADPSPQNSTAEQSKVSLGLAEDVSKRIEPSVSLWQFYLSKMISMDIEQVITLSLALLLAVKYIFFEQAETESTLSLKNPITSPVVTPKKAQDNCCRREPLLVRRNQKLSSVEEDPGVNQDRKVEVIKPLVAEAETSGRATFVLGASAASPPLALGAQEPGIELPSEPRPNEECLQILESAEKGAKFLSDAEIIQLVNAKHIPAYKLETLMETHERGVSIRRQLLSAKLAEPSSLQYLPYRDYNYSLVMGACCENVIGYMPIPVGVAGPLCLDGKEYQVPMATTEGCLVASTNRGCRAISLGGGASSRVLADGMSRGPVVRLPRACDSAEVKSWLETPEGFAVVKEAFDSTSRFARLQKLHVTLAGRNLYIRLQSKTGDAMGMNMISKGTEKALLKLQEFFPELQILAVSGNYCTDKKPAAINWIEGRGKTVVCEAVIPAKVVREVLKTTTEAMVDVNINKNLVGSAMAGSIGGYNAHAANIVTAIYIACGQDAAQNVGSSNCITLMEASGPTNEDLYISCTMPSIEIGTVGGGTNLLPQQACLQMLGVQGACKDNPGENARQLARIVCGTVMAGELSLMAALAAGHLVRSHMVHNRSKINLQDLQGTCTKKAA
The assay is described as follows: Tested in vitro for relative potency against HMG-CoA reductase in a microsomal preparation (relative to compactin =1). It counts as microsomes. Particulars: Microsome.

Assay [2] addresses T2, 3-hydroxy-3-methylglutaryl-coenzyme A reductase (Rattus norvegicus, UniProt P51639).
T2 sequence (P51639 whole entry): T1 sequence (whole entry)
As to the kind of experiment: Tested in vitro for the HMG-CoA reductase inhibitory activity in a microsomal preparation. The assay is classed as microsomes, Microsome.

Assay [3] relates to Rattus norvegicus. The assay is described as follows: Tested in vivo for the concentration required to produce 50% inhibition of the incorporation of [14C]acetate into cholesterol. It counts as functional.
Assay [4] has as its system Rattus norvegicus. As to the kind of experiment: Tested in vivo for the concentration required to produce relative potency of the incorporation of [14C]acetate into cholesterol (relative to compactin=1). The assay is classed as functional.

The term IC50 denotes the midpoint of a concentration-inhibition curve. Read a low IC50 as inhibition by little substance. The molecule `COc1ccc(-c2c(-c3ccccc3)sc(C(C)C)c2/C=C/[C@@H](O)C[C@@H](O)CC(=O)O)cc1` displayed a Relative potency in assay [1] of 0.5. In assay [2], this molecule showed an IC50 of 2430 nM.

In assay [1], `CC(C)c1sc(C2CCCC2)c(-c2ccc(F)cc2)c1/C=C/[C@@H](O)C[C@@H](O)CC(=O)O` registered a Relative potency of 2. Also, half-maximal inhibition in assay [2] (IC50) required 570 nM.

The molecule `CC(C)c1sc(-c2ccccc2)c(-c2cccc(C(F)(F)F)c2)c1/C=C/[C@@H](O)C[C@@H](O)CC(=O)O` came in with a Relative potency in assay [1] of 0.4. The concentration for half-maximal inhibition (IC50) in assay [2] came out at 2980 nM.

As to `CCCCCCCCc1c(-c2ccccc2)sc(C(C)C)c1/C=C/[C@@H](O)C[C@@H](O)CC(=O)O`, the Relative potency in assay [1] is less than 0.1. This molecule also displayed a 50% inhibitory concentration (IC50) in assay [2] greater than 10000 nM.

As a reminder, the ED50 is the dose that gives a 50% effect, or the effect in half of the subjects. `CC(C)c1sc(-c2ccccc2)c(-c2ccc(F)cc2)c1/C=C/[C@@H](O)C[C@@H](O)CC(=O)[O-].[Na+]`: the ED50 in the assay on Rattus norvegicus [3] was 0.11 mg/kg. For the same molecule, the results for the Relative potency (in the assay on Rattus norvegicus [4]; in assay [1]) were 37 and 261, respectively. This molecule also showed a half-maximal inhibitory concentration (IC50) in assay [2] of 4.4 nM.

Turning to `CC(C)c1sc(-c2ccccc2)c(-c2cccc(F)c2)c1/C=C/[C@@H](O)C[C@@H](O)CC(=O)O`, the Relative potency in assay [1] came to 23. This molecule showed an IC50 in assay [2] of 49 nM.

The molecule `CC[C@H](C)C(=O)O[C@H]1C[C@@H](C)C=C2C=C[C@H](C)[C@H](CC[C@@H]3C[C@@H](O)CC(=O)O3)[C@H]21` [LOVASTATIN] came in with an ED50 in the assay with Rattus norvegicus [3] of 0.38 mg/kg. Besides, the Relative potency is 11 with Rattus norvegicus [4] and 2.2 in assay [1]. The same molecule displayed an IC50 in assay [2] of 530 nM.

`CC(C)c1sc(C(C)C)c(-c2ccc(F)cc2)c1/C=C/[C@@H](O)C[C@@H](O)CC(=O)[O-].[Na+]` came in with an ED50 in the assay on Rattus norvegicus [3] of 0.08 mg/kg. Also, the Relative potency with Rattus norvegicus [4] is 50; in assay [1] it was 44. Moreover, half-maximal inhibition in assay [2] (IC50) was put at 26 nM.

`CC(C)c1sc(-c2ccccc2)c(C2CCCCC2)c1/C=C/[C@@H](O)C[C@@H](O)CC(=O)[O-].[Na+]` had a 50% effective dose (ED50) in the assay with Rattus norvegicus [3] of 0.57 mg/kg. Also, the Relative potency in the assay with Rattus norvegicus [4] stood at 7.1; in assay [1], 5.7. The same molecule returned an IC50 in assay [2] of 202 nM.

On to `COc1ccc(-c2sc(C(C)C)c(/C=C/[C@@H](O)C[C@@H](O)CC(=O)[O-])c2-c2ccc(F)cc2)cc1.[Na+]`, for which the ED50 in the assay on Rattus norvegicus [3] was 0.15 mg/kg. For the same molecule, the values for the Relative potency (in the assay with Rattus norvegicus [4]; in assay [1]) were 27 and 183, respectively. This molecule also registered an IC50 in assay [2] of 6.3 nM.

Take `CC(C)c1sc(-c2ccccc2)c(-c2ccccc2F)c1/C=C/[C@@H](O)C[C@@H](O)CC(=O)O`: the Relative potency in assay [1] stood at 4.9. In addition, the 50% inhibitory concentration (IC50) in assay [2] stood at 233 nM.

For `CC(C)c1sc(-c2ccccc2)c(-c2ccc(-c3ccccc3)cc2)c1/C=C/[C@@H](O)C[C@@H](O)CC(=O)O`, the Relative potency in assay [1] is less than 0.1. Also, in assay [2], the half-maximal inhibitory concentration (IC50) was greater than 10000 nM.

With `CC[C@H](C)C(=O)O[C@H]1CCC=C2C=C[C@H](C)[C@H](CC[C@@H]3C[C@@H](O)CC(=O)O3)[C@H]21` [MEVASTATIN], the ED50 in the assay with Rattus norvegicus [3] turned out to be 4.02 mg/kg. For the same molecule, the Relative potency (with Rattus norvegicus [4]; in assay [1]) was 1 throughout. Further, inhibition in assay [2] was half-maximal at 1150 nM (IC50).

In turn, `CC(C)c1sc(-c2ccccc2)c(C2CCCC2)c1/C=C/[C@@H](O)C[C@@H](O)CC(=O)O` returned a Relative potency in assay [1] of 2.8. This molecule displayed an IC50 in assay [2] of 417 nM.

In assay [1], `CC(C)=Cc1c(-c2ccccc2)sc(C(C)C)c1/C=C/[C@@H](O)C[C@@H](O)CC(=O)O` came in with a Relative potency of 1.2. This molecule also returned a 50% inhibitory concentration (IC50) in assay [2] of 1000 nM.

`Cc1ccc(-c2sc(C(C)C)c(/C=C/[C@@H](O)C[C@@H](O)CC(=O)[O-])c2-c2ccc(F)cc2)cc1.[Na+]` showed a 50% effective dose (ED50) in the assay on Rattus norvegicus [3] of 0.32 mg/kg. In addition, the Relative potency in the assay with Rattus norvegicus [4] was 13; in assay [1], 119. The molecule also registered an IC50 in assay [2] of 9.7 nM.

`CC(C)c1sc(-c2ccccc2)c(-c2cccs2)c1/C=C/[C@@H](O)C[C@@H](O)CC(=O)O` returned a Relative potency in assay [1] of 0.8. This molecule also displayed an IC50 in assay [2] of 1420 nM.

In the assay on Rattus norvegicus [3], `CC(C)=Cc1sc(C(C)C)c(/C=C/[C@@H](O)C[C@@H](O)CC(=O)[O-])c1-c1ccc(F)cc1.[Na+]` had an ED50 of 0.11 mg/kg. For the same molecule, the Relative potency came out at 37 in the assay with Rattus norvegicus [4] and 77 in assay [1]. In assay [2], this molecule had a half-inhibitory concentration (IC50) of 15 nM.

Molecule `CC(C)c1sc(CO)c(-c2ccc(F)cc2)c1/C=C/[C@@H](O)C[C@@H](O)CC(=O)O` yielded a Relative potency in assay [1] of 4. This molecule returned an IC50 in assay [2] of 325 nM.

Consider `CC(C)c1sc(-c2ccc(Cl)cc2)c(-c2ccc(F)cc2)c1/C=C/[C@@H](O)C[C@@H](O)CC(=O)[O-].[Na+]`, for which, in the assay on Rattus norvegicus [3], the 50% effective dose (ED50) was found to be 0.64 mg/kg. Besides, the figures for the Relative potency (in the assay on Rattus norvegicus [4]; in assay [1]) were 6.3 and 55, respectively. Further, in assay [2], the half-maximal inhibitory concentration (IC50) is 21 nM.

The molecule `Cc1sc(C(C)C)c(/C=C/[C@@H](O)C[C@@H](O)CC(=O)[O-])c1-c1ccccc1.[Na+]` returned a median effective dose (ED50) with Rattus norvegicus [3] of 0.19 mg/kg. The results for the Relative potency (with Rattus norvegicus [4]; in assay [1]) were 21 and 12, respectively. In assay [2], this molecule displayed an IC50 of 94 nM.

For `COCCOCc1sc(C(C)C)c(/C=C/[C@@H](O)C[C@@H](O)CC(=O)O)c1-c1ccc(F)cc1`, in assay [1], the Relative potency worked out at 5.6. Besides, the midpoint of inhibition in assay [2], the IC50, lay at 206 nM.

Molecule `CC(C)c1sc(-c2ccccc2)c(-c2ccccc2)c1/C=C/[C@@H](O)C[C@@H](O)CC(=O)[O-].[Na+]` showed an ED50 in the assay on Rattus norvegicus [3] of 0.17 mg/kg. Besides, the Relative potency in the assay with Rattus norvegicus [4] stood at 24; in assay [1], 44. The molecule further yielded an IC50 in assay [2] of 26 nM.

In assay [1], `CCCCCCCCc1sc(C(C)C)c(/C=C/[C@@H](O)C[C@@H](O)CC(=O)O)c1-c1ccc(F)cc1` gave a Relative potency of less than 0.1. Further, the IC50 in assay [2] is greater than 10000 nM.
